Reference: PMC2425470 (Nucleic Acids Research, 2008)

Experiments:
[1] = molecular target: T1, CF Im25 (25 kDa subunit of human cleavage factor Im; CPSF5; NUDT21) (Homo sapiens, UniProt O43809); assay: steady-state tryptophan fluorescence titration; type: binding
[2] = molecular target: T1, CF Im25 (25 kDa subunit of human cleavage factor Im; CPSF5; NUDT21); assay: […] Å crystal structure; type: binding

T1 sequence (O43809 whole entry): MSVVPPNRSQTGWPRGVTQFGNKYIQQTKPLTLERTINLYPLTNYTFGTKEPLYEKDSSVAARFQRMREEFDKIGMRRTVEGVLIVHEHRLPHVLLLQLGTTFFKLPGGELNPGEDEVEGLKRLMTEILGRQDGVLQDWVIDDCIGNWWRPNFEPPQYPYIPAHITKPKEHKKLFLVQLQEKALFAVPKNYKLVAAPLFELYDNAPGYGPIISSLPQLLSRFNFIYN

Kd [1] [µM] | Kd [2] [µM] | SMILES
1530 ± 180 | – | Nc1ncnc2c1ncn2[C@@H]1O[C@H](COP(=O)(O)OP(=O)(O)OP(=O)(O)O)[C@@H](O)[C@H]1O [ATP]
– | 2.44 ± 0.49 | Nc1ncnc2c1ncn2[C@@H]1O[C@H](COP(=O)(O)OP(=O)(O)OP(=O)(O)OP(=O)(O)OC[C@H]2O[C@@H](n3cnc4c(N)ncnc43)[C@H](O)[C@@H]2O)[C@@H](O)[C@H]1O [Ap4A]
